Our source for the IC50 values is ChEMBL document CHEMBL4325914, “Design and Evaluation of Potent EGFR Inhibitors through the Incorporation of Macrocyclic Polyamine Moieties into the 4-Anilinoquinazoline Scaffold” (J Med Chem, 2018).

Epidermal growth factor receptor, sequence (P00533 whole entry): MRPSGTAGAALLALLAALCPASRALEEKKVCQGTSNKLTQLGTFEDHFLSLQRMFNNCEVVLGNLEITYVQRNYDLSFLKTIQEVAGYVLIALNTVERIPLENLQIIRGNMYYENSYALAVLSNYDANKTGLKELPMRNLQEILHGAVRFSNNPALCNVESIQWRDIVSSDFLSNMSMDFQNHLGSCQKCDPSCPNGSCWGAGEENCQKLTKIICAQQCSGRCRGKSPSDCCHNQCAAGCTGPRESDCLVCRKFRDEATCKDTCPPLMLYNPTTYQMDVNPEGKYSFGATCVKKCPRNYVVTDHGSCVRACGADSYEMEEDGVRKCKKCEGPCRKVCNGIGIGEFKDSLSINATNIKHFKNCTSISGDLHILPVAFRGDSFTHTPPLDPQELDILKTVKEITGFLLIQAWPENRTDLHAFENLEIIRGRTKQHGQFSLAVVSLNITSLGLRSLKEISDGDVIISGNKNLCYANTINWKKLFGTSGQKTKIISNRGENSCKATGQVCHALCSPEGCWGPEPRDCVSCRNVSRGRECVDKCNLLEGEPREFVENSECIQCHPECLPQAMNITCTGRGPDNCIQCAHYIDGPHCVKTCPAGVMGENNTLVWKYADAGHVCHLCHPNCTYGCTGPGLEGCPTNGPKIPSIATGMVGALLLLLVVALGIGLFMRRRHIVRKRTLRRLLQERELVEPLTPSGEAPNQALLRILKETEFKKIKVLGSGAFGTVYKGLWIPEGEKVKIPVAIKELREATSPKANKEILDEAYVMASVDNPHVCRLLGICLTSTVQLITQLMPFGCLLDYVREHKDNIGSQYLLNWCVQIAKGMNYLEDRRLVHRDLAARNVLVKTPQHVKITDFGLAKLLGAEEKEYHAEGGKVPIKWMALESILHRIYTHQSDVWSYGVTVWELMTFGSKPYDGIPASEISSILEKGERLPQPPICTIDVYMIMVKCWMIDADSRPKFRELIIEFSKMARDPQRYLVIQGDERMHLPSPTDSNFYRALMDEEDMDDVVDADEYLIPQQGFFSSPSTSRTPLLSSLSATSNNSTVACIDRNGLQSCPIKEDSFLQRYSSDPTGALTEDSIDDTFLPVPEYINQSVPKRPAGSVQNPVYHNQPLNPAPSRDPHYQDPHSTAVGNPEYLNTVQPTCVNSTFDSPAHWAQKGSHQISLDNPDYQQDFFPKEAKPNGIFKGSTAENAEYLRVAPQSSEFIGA

The first assay relates to A549. As to the kind of experiment: cells. In kind it is functional, cell-based. Conditions: Homo sapiens, A549, 72 h.
Description: Antiproliferative activity against human A549 cells after 72 hrs by MTT assay
Regarding `COc1cc2ncnc(Nc3cccc(F)c3)c2cc1OCCCN1CCNCCNCC1`, the IC50 (as a rule, the point on the concentration scale where inhibition reaches its midpoint) is more than 50 µM.

Regarding `COc1cc2ncnc(Nc3cccc(F)c3)c2cc1OCCCN1CCNCCNCCNCC1`, the IC50 was more than 50 µM.

Regarding `COc1cc2ncnc(Nc3cccc(Cl)c3)c2cc1OCCCN1CCNCCNCC1`, the half-maximal inhibitory concentration (IC50) is more than 50 µM.

In turn, `COc1cc2ncnc(Nc3ccc(C#N)cc3F)c2cc1OCCCN1CCNCCNCCNCC1` yielded an IC50 of more than 50 µM.

`COc1cc2ncnc(Nc3cccc(I)c3)c2cc1OCCCN1CCNCCNCC1`: the IC50 was found to be 26.2 µM.

`COc1cc2ncnc(Nc3ccc(Cl)cc3Cl)c2cc1OCCCN1CCNCCNCCNCC1` displayed an IC50 of 23.8 µM.

Regarding `COc1cc2ncnc(Nc3ccc(Br)cc3F)c2cc1OCCCN1CCNCCNCC1`, it took 16.1 µM to reach half-maximal inhibition (IC50).

Take `CCc1cc(Br)ccc1Nc1ncnc2cc(OC)c(OCCCN3CCNCCNCC3)cc12`: the IC50 is more than 50 µM.

Molecule `COc1cccc(Nc2ncnc3cc(OC)c(OCCCN4CCNCCNCC4)cc23)c1` yielded an IC50 of more than 50 µM.

Take `COc1cc2ncnc(Nc3ccc(Cl)cc3Cl)c2cc1OCCCN1CCNCCNCC1`: the IC50 stood at 44.2 µM.

Molecule `COc1cc2ncnc(Nc3ccc(F)c(Br)c3)c2cc1OCCCN1CCNCCNCCNCC1` showed an IC50 of 11.8 µM. Compared with the last molecule, the IC50 is about 3.7-fold lower.

In the case of `C#Cc1cccc(Nc2ncnc3cc(OC)c(OCCCN4CCNCCNCC4)cc23)c1`, the IC50 was more than 50 µM.

Take `COc1cc2ncnc(Nc3ccc(Cl)c(C(F)(F)F)c3)c2cc1OCCCN1CCNCCNCCNCC1`: the midpoint of inhibition, the IC50, lay at 5.35 µM.

Regarding `COc1cc2ncnc(Nc3cccc(I)c3)c2cc1OCCCN1CCNCCNCCNCC1`, the IC50 came to 14.5 µM.

Consider `COc1cc2ncnc(Nc3ccc(Cl)c(C(F)(F)F)c3)c2cc1OCCCN1CCNCCNCC1`, for which the midpoint of inhibition, the IC50, lay at 6.23 µM.

Regarding `COc1cc2ncnc(Nc3cccc(Br)c3)c2cc1OCCCN1CCNCCNCC1`, it took 34.3 µM to reach half-maximal inhibition (IC50).

A further assay has as its target Epidermal growth factor receptor (Homo sapiens, UniProt P00533).
Test: not given
Conditions: not given
As to `COc1cc2ncnc(Nc3ccc(Br)cc3F)c2cc1OCCCN1CCNCCNCC1`, the midpoint of inhibition, the IC50, lay at 0.0282 µM.

The test system of a further assay is A-431. Kind of assay: cells. The format is functional, cell-based. The note with it: Homo sapiens, A-431, 72 h.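 Also: antiproliferative activity measured with an MTT assay.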
Description: Antiproliferative activity against human A431 cells after 72 hrs by MTT assay
In turn, `COc1cc2ncnc(Nc3cccc(F)c3)c2cc1OCCCN1CCNCCNCC1` had a half-maximal inhibitory concentration (IC50) of 7.91 µM.

For `COc1cc2ncnc(Nc3cccc(F)c3)c2cc1OCCCN1CCNCCNCCNCC1`, the IC50 is 1.86 µM.

The molecule `COc1cc2ncnc(Nc3cccc(Cl)c3)c2cc1OCCCN1CCNCCNCC1` yielded an IC50 of 1.12 µM. Compared with the last molecule, the IC50 is about 1.7-fold lower.

Consider `COc1cc2ncnc(Nc3ccc(C#N)cc3F)c2cc1OCCCN1CCNCCNCCNCC1`, for which the IC50 amounted to 6.37 µM.

In turn, `COc1cc2ncnc(Nc3cccc(I)c3)c2cc1OCCCN1CCNCCNCC1` displayed an IC50 of 2.21 µM. Against the preceding molecule, the IC50 is about 2.9-fold lower.

In turn, `COc1cc2ncnc(Nc3ccc(Cl)cc3Cl)c2cc1OCCCN1CCNCCNCCNCC1` yielded a concentration for half-maximal inhibition (IC50) of 4.38 µM.

Turning to `COc1cc2ncnc(Nc3ccc(Br)cc3F)c2cc1OCCCN1CCNCCNCC1`, the IC50 was determined as 0.561 µM. This IC50 lies about 7.8-fold lower than the previous one.

`CCc1cc(Br)ccc1Nc1ncnc2cc(OC)c(OCCCN3CCNCCNCC3)cc12` yielded an IC50 of 18.8 µM. This IC50 lies about 34-fold higher than the previous one.

In the case of `COc1cccc(Nc2ncnc3cc(OC)c(OCCCN4CCNCCNCC4)cc23)c1`, the IC50 was found to be 8.53 µM.

Consider `COc1cc2ncnc(Nc3ccc(Cl)cc3Cl)c2cc1OCCCN1CCNCCNCC1`, for which the IC50 amounted to 4.08 µM.

For `COc1cc2ncnc(Nc3ccc(F)c(Br)c3)c2cc1OCCCN1CCNCCNCCNCC1`, the IC50 turned out to be 1.58 µM. This IC50 lies about 2.6-fold lower than the previous one.

`C#Cc1cccc(Nc2ncnc3cc(OC)c(OCCCN4CCNCCNCC4)cc23)c1` displayed an IC50 of 2.23 µM.

`COc1cc2ncnc(Nc3ccc(Cl)c(C(F)(F)F)c3)c2cc1OCCCN1CCNCCNCCNCC1` came in with an IC50 of 1.71 µM.

The molecule `COc1cc2ncnc(Nc3cccc(I)c3)c2cc1OCCCN1CCNCCNCCNCC1` displayed an IC50 of 2.54 µM.

The molecule `COc1cc2ncnc(Nc3ccc(Cl)c(C(F)(F)F)c3)c2cc1OCCCN1CCNCCNCC1` came in with an IC50 of 2.98 µM.

Consider `COc1cc2ncnc(Nc3cccc(Br)c3)c2cc1OCCCN1CCNCCNCC1`, for which the IC50 turned out to be 2.32 µM. The IC50 values of the last two molecules are within 1.5-fold of each other.
